Legend:
[1] = molecular target: T1, hERα (Homo sapiens, UniProt P03372); assay: Transient transfection reporter assay for hERα in MCF-7 cells; type: cell-based; design: Relative Estrogenic Activity: dose or concentration left out as unconfirmed
T1 construct: mammalian expression plasmid containing full length human ER cDNA, pCMV-hER; expressed in transfected cells; host or cells: MCF-7 human breast cancer cells
T1 sequence (P03372 1-595): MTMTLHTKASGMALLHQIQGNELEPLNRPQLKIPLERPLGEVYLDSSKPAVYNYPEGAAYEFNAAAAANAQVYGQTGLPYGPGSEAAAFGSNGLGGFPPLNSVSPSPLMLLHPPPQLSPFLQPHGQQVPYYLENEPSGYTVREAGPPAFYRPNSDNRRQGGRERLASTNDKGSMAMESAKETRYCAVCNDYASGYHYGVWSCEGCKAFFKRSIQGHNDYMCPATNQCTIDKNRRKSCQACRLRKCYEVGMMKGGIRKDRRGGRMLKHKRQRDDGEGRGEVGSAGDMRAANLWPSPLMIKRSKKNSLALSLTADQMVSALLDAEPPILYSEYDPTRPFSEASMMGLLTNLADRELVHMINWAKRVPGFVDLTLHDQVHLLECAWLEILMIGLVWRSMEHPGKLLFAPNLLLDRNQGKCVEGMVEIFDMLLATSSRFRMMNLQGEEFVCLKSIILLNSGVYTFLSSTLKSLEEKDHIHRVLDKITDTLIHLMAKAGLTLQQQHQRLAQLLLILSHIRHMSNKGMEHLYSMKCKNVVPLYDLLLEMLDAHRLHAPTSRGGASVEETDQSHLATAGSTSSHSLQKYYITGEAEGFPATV
Description: For the transient transfection reporter assays, the cells were plated in triplicate in 12-well plates at a density of 300000 cells/well in the phenol red-free DMEM (GIBCO/BRL, Grand Island, N.Y.) supplemented with 10% charcoal-stripped fetal bovine serum (Hyclone, Logan, Utah), Penicillin (100 unit/ml)/Streptomycin ([…]), 2 mML-glutamine and 1 mM sodium Pyruvate. 24 hrs later, the cells were transfected with three plasmids by using Superfect transfection kit (Qiagen, Valencia, Calif.). For the detection of hER activity, cells were transfected with 2 g hER expression plasmid (pCMV-ER ), 6 g luciferase reporter plasmid containing estrogen receptor response element (PGL-TATA-Luc), and 600 ng normalization control, β-galactosidase reporter plasmid (pCMV ). For the detection of hER activity, cells were transfected with 3 ug hER expression plasmid (pcDNA3.1-hER), 6 g luciferase reporter plasmid containing estrogen receptor response element (PGL-TATA-Luc), and 600 ng pCMV. For determining the influence of ER's major coactivator in breast, AIB 1, 2 g pcDNA3.1-AIB1 was added into the transfection plasmid solution mentioned previously.
The transfected cells were rinsed with PBS and treated with various concentrations of test molecules and one […] (vehicle, DMSO or methanol) in phenol red-free culture medium. After incubation for further 24 hrs, the cells were washed with PBS and lysed with lysis buffer (Pierce, Rockford, Ill.). The lysate was used to determine the luciferase activity for ER's activity and the β-galactosidase activity for the normalization of transfection efficiency.
For the luciferase activity assay, 20 μl of lysate and 100 μl luciferase assay buffer (Promega, Madison, Wis.) were added into a well of 96-well plate. The luminescence was detected by using luminescence microplate reader, LumiCount (Packard, Boston, Mass.). For the β-galactosidase activity assay, […] β-galactosidase assay buffer (Clontech, Palo Alto, Calif.) were added into a well of 96-well plate. The β-galactosidase activity was measured as luminescence strength by using luminescence microplate reader, LumiCount (Packard, Boston, Mass.). The normalized reporter activity was calculated by the luciferase activity divided by that of β-galactosidase.
The transient transfection reporter assay was used to determine the estrogenic or antiestrogenic activity of tested compounds in employed human breast cancer cells, MCF-7 cells that are cotransfected with hERα expression and reporter plasmids. […] […] The estrogenic (antiestrogenic) activity was determined by dividing the luciferase activity by the β-galactosidase activity. To determine the influence of estrogen receptor's major coactivator in breast cancer, AIB1, for the compounds' estrogenic activity, the expression vector of AIB1 was additionally cotransfected with the plasmids mentioned above.

[2] = tested on: MDA-MB-231 cells; assay: hER negative breast cancer cell proliferation assay; type: cell-based, human; details: hER negative cell line
Description: (§1) MCF-7 or MDA-MB-231 cells were inoculated into 12-well culture plates at 10000 cells in 2 ml maintained medium per well. Cells were allowed to attach to the bottom for 24 hrs incubation, then the seeding medium was removed and replaced by the experimental medium (phenol red-free DMEM supplemented with 5% charcoal-stripped fetal bovine serum and Penicillin (100 unit/ml)/Streptomycin ([…])). After 24 hr incubation, the test molecules dissolved in DMSO were added in the wells. […] The culture was continued for 3 days and the medium and tested compounds were replaced every two days. The final cell numbers were estimated with CellTiter proliferation assay kit (Promega, Madison, Wis.) by measuring the absorbance at 570 nm, which is directly proportional to the number of living cells in the culture.
In this assay, MDA-MB-231 breast cancer cell line, a hER negative cell line, was used. DMSO was used as reference.

[3] = tested on: MCF-7 cells; assay: hERα positive breast cancer cell proliferation assay; type: cell-based, human
Description: as §1
MCF-7 cell line was used to perform this assay and the description of this assay as mentioned above. […] DMSO was used as reference.

[4] = molecular target: T2, hERα (Homo sapiens, UniProt P03372); assay: Yeast two-hybrid and filter lift assay of hERα dimerization; type: cell-based
T2 construct: the full length hERα was inserted into pGAD-GAL4 and pGBD-GAL4 vectors; expressed in transfected cells; host or cells: S. cerevisiae Y190 transformed with pGBT-hER (pGBKT7) and pGAD-hER (pGADT7)
T2 sequence (P03372 1-595) 1: T1 sequence (P03372 1-595)
T2 sequence (P03372 1-595) 2: T1 sequence (P03372 1-595)
Description: The transformed yeasts with yeast two-hybrid vectors were cultured in synthetic medium lacking trytophan, and leucine. […] After that, the membranes were soaked in 0.4 ml Z-buffer/Xgal (60 mM Na2HPO4, 40 mM NaH2PO410 mM KCl, 1 mM MgSO4, 0.1% SDS, 50 mM -mercaptoethanol, 20 mM Xgal). The pictures of the results were taken within 2 and 3 hours after the -galactosidase assay was processed.
Dimerization of estrogen receptor plays an essential role in regulating estrogen receptor's functions including DNA binding, transactivation, and coactivator recruitment. In this study, yeast two hybrid and filter lift assays were used to determine the ability of compounds 2 and 6 to interrupt the dimerization of hERα. For setting up yeast two hybrid assay, the full length hERα was inserted into pGAD-GAL4 and pGBD-GAL4 vectors. In pGBD-GAL4, hERα was fused to the GAL4 DNA binding domain through its N terminus. In pGAD-GA14, hERα was fused to the GAL4 activation domain through its N terminus. When the dimerization of hERα occurs mainly through its C terminus, the GAL4 DNA binding domain binds to the repeated GAL4 response element located in front of the β-gal reporter gene and the whole complex, GAL4-BD/hERα/hERα/GAL4-AD, turns on the synthesis of the product of β-gal reporter gene. […] Filter lift assay in which X-gal was used, was employed to qualitatively determine the activity of β-galactosidase.

[5] = tested on: hER; assay: Fluorescence-based competitive binding assay for hER (displacement of fluormone ES2); design: species or system human; details: RBA = IC50 of tamoxifen/IC50 of test molecule; tamoxifen set at 1
Description: The estrogen receptor competitor assay kits (Panvera, Madison, Wis.) were used to determine the ability of test molecules to displace the fluormone, ES2, from hER -ES2 or hER -ES2 complex. Serial dilutions of each test molecule were prepared in methanol or DMSO. The recombinant hER or hER (7 nM) was preincubated with ES2 (1 nM) in screening buffer. After the preincubation, the test molecules and ER-ES2 complex solution were added into the 96-well microplate to produce a final volume of 100 μl per well. The reaction was incubated at room temperature for 1 hr and the polarization values were measured by using fluorescence microplate reader, Polarion (Tecan, Research Triangle Park, N.C.) with excitation wavelength 495 nm and emission wavelength 535 nm. The polarization value versus test molecule concentration curves was analyzed by graphfit software to generate IC50 values.
In this assay, recombinant hER and the commercial synthetic estrogen, ES2 containing fluorescence polarization property, are used. This assay is a homogenous assay. When the assay solution only contains ES2, the solution exerts weak fluorescence polarization property due to the quick rotation of free ES2 molecule. […] Addition of the antiestrogen to the ES2/hER displaces ES2 from hER and results in the whole solution exerting less fluorescence polarization property than the solution without antiestrogen.

[6] = molecular target: T3, mutant hART877A (Homo sapiens, UniProt P10275, T878A); assay: Transient transfection reporter assay in LNCaP cells expressing mutant hAR; type: cell-based
T3 construct: LNCaP cells expressing a novel mutant hART877A; endogenous in cells; host or cells: LNCaP prostate cancer cells (transfected only with reporter plasmids, as far as printed)
T3 sequence (P10275 1-920 T878A): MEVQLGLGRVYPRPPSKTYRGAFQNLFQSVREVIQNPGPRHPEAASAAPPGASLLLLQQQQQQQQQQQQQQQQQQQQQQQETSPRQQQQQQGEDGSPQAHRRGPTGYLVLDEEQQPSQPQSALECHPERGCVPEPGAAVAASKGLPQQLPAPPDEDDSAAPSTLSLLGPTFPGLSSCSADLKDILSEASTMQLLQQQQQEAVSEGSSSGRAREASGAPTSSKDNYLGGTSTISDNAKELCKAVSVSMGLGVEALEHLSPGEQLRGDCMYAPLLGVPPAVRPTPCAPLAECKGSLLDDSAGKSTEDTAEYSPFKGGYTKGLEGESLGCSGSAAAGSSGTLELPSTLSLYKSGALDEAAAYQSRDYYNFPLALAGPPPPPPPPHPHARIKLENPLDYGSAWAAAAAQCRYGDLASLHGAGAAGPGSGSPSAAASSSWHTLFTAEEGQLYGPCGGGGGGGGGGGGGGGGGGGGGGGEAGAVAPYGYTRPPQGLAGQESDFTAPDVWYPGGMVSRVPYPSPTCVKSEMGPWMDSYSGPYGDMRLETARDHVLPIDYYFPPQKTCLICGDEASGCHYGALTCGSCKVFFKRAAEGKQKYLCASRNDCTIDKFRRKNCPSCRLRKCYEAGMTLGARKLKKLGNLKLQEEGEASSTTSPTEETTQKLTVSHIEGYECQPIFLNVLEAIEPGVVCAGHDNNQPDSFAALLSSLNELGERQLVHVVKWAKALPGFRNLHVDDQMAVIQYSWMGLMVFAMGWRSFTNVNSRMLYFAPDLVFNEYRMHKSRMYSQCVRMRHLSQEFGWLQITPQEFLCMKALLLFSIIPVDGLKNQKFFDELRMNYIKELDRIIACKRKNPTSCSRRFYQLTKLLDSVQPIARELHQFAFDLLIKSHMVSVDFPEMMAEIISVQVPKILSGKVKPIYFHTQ
Description: To determine the agonist and antagonist activity of these compounds, the transient transfection reporter assay in HepG2 cells were employed. […] Apart from the testing against wild type hAR, because hAR mutation is one of the important factors for antiandrogen-resistant symptoms discovered in advance prostate cancer patients, we also employed transient transfection reporter assay in the prostate cancer cell line, LNCaP cells expressing a novel mutant hART877A.

## CCCCNC(=O)CCCCCCCCCCOCC1Cc2ccccc2CN1C(=O)c1cccc(F)c1 (stereo not shown) [Compound 2]
[1]; MCF-7 cells transfected with hERα, DMSO set as 1
  Relative Estrogenic Activity: 0.9
[1]; MCF-7 cells, hERα, compared with DMSO and tamoxifen
  estrogenic effect: do not exert any estrogenic effects
[1]; with 1 nM estradiol, 1 nM E2 used as reference (1)
  Relative Antiestrogenic Activity at 2.5 μM: 0.75
[2]
  proliferation effects against MDA-MB-231 cells (FIG. 6, words): do not inhibit or stimulate the growth
[3]
  inhibition effects against MCF-7 cell proliferation: slightly lower inhibition effects than compound 6
[3]; Homo sapiens, MCF7, 72 h, MCF-7 cells, DMSO = 1, read-out: Relative Cancer Cell Proliferation Effects at 5 μM
  activity at 5 µM: 66%
[4]; combined with estrogen
  inhibitory activity against hERα dimerization in combination with estrogen: weak inhibitory activity
[4]; tested alone
  induction of hERα dimerization, compound alone: did not induce the dimerization of hERα
[5]
  Relative Binding Affinity: 0.287

## C[C@]1(O)CC[C@H]2[C@@H]3CCC4=CC(=O)CCC4=C3C=C[C@@]21C [Compound R1881, R1881]
[6]
  agonistic effects against mutant hART877A: significant agonism activity
